# US20220325242A1, “IDH2 INHIBITION FOR PRODUCING T-CELLS AND B-CELLS WITH A MEMORY PHENOTYPE” (Universite de Lausanne, priority 2019, published 2022)
# Tests used:
# [1] = tested on: human CD8+ T-cells from umbilical cord blood; experiment: CD62L flow cytometry of human cord blood mononuclear cells (CBMC); assay type: cell-based
# Protocol: Methods: Mononuclear Cells were isolated from fresh umbilical cord blood on a Percoll Gradient (CBMCs). 10^4 CBMC's were seeded per well in a round bottom 96-well plate in RPMI with 10% human serum, and activated with (magnetic) αCD3/CD28 at a 1:2 cell:bead ratio and 300 U/ml rhIL-2, in the presence of 5 μM AG221 or DMSO, or 1 μM MK2206 (AKT inhibitor). After 11 days of culture, CD62L expression was analyzed by flow cytometry on a fraction of the cells (FIG. 15A). The other cells were washed 2 times and placed in a magnet to remove the inhibitors and the αCD3/CD28 beads. The cells were then rested for 4 hours before restimulating them for 4 hours with 1 ng/ml Phorbol 12-Myristate 13-Acetate (PMA, a PKC activator) and 50 μg/ml Ionomycin (a Ca^2+ ionophore, activating NF-KB and NFAT) in the presence of 50 μ/ml golgi inhibitor (Brefeldin A, BFA), allowing for the measurement of intracellular accumulation of different cytokines by flow cytometry.
# [2] = tested on: OT2 CD4 T cells; experiment: CD62L flow cytometry of OT2 CD4 T cells activated by co-culture with dendritic cells; assay type: cell-based, mouse; conditions: 5 μM for 7 days, day 7, versus DMSO
# Text: A new experiment has been performed on mouse T cells in order to further strengthen our claim that IDH2 inhibition also promotes memory marker expression in CD4 T cells. As indicated in the experimental scheme (FIG. 17A), we activated CD4 T cells from OT2 mice by co-culture with dendritic cells. OT2 mice are transgenic for an αβTCR recognizing specifically a chicken ovalbumine peptide 323-339 associated with the mouse MHC class II molecule I-A^b. We activated OT2 CD4 T cells by co-culture with dendritic cells loaded with […] of the ovalbumine peptide in the presence of 100 IU/ml recombinant human IL2 in the presence of 5 μM AG221 or DMSO control. After 4 days, cells were collected, washed and split, and brought back in culture with 100 IU/ml rhIL2 and 5 μM AG221 or DMSO control.
# [3] = tested on: transferred CD8+ CD45.1+ OT1 T-cells; experiment: Phenotype of adoptively transferred OT1 CD8+ T-cells in blood of B16-OVA tumor-bearing mice; assay type: in vivo, mouse
# Text: Antibody panel to determine the frequency and differentiation and activation state of adoptively transferred T-cells in the blood (see Example 6): CD8-PE-texas-Red, CD45.1-Pacific blue, CD45.2-FITC, CD127-PE, KLRG1-PE-Cy7, CD62L-APC, CD44-APC-Cy7, and CD27-PerCP-Cy5.5.
# Example 5. In vivo tumor model to characterize the phenotype and efficacy of cultured CD8+ T-cells upon adoptive cell transfer. An in vivo tumor model was used to determine the efficacy of in vitro cultured CD8+ T-cells treated with an IDH2 inhibitor in eliminating cancer cells (FIG. 10). B16-OVA melanoma cells (see Example 1) were cultured in DMEM (GIBCO) with 10% FCS and 1% P/S before their subcutaneous injection into the mouse flank. Each mouse received 100′000 cells in a volume of 200 μl of PBS. 6 days after B16-OVA cell injection, tumors were measured, mice were randomized and lymphodepleted by irradiation (5 Gray). 7 days after B16-Ova cell injection, mice were adoptively transferred with activated CD45.1^+ OT-1 splenocytes. The CD45.1^+ OT-1 splenocytes had been cultured in vitro for 7 days as described in Example 2, wherein the IDH2 inhibitor was AG221, collected and purified on a Ficoll gradient to separate dead and live splenocytes. Live splenocytes, almost exclusively consisting of CD8+ T-cells (about 98%), were counted with Trypan blue stain 0.4%. 100′000 live splenocytes were transferred into CD45.2^+ host mice by tail vein injection.
# Following the adoptive cell transfer (ACT), mice received a vaccination of CpG (50 μg/mouse) and N4 Ova peptide (10 μg/mouse) diluted in PBS to obtain a total volume of 100 μl/mouse, injected subcutaneously at the tail base to further stimulate the transferred cells. An additional no-ACT control group received only a PBS injection (neither cells, CpG nor peptide). Tumors were measured every 2 days with a digital caliper and the tumor volume was calculated according to the formula: V=π×[d2×D]/6, wherein d is the smallest tumor axis and D is the largest tumor axis.
# Example 6. Maintenance of the CD8+ T-cell memory phenotype in vivo. Blood samples were collected at day 14 and day 18 post tumor engraftment (see Example 5). […] Transferred CD8+ T-cells were CD8^+ and CD45.1^+. Among those, MPECs were KLRG1^low and CD127^+, SLECs were KLRG1^high and CD127^−, and TCM were CD44^+ and CD62L^+.
# [4] = tested on: histone H3 (H3K4-3Me, H3K27-Ac) in OT1 T-cells; experiment: Western blot of histone H3 modifications in OT1 T-cells; assay type: cell-based, mouse; conditions: day 7, 5 μM day 0-3, western blot, versus DMSO
# Protocol: Methods: OT1 splenocytes were activated and cultured with 5 μM AG221 or DMSO as described in Example 2. After 3 days, the cells were washed and the IDH2 inhibitor was washed out as well. The cells were then cultured for an additional 4 days in the absence of AG221. At day 7, the cells were collected and washed once with PBS. 50′000 cells were collected for ATAC-seq while the remaining cell pellet was lysed in extraction buffer (20 mM Tris HCl, 150 mM NaCl, 1% Triton X-100, 10% glycerol, 5 mM EDTA) supplemented with Complete Mini protease inhibitor (Roche) for wester blotting.
# For western blotting, an equal amount of protein (as measure by the BCA protein assay kit, Thermo Scientific) was size-separated on a 12.5% polyacrylamide gel and transferred to a 0.2 μm nitrocellulose membrane (Bio-Rad). The following antibodies were used: β-Actin (AC-74) from Sigma Aldrich, H3K4-trimethyl (C42D8) and H3K27-acetyl (D5E4) from Cell Signaling, and appropriate HRP-labelled secondary antibodies (Santa Cruz). The signal was visualized with ECLTM Select Western Blotting Detection Reagent from Sigma Aldrich or SuperSignal West Femto Maximum Sensitivity Substrate from Thermo Scientific and acquired by the Fusion FX from Vilber.
# [5] = day 14, compared to DMSO control
smiles,measurement,setting,value
"CC(C)(O)CNc1nc(Nc2ccnc(C(F)(F)F)c2)nc(-c2cccc(C(F)(F)F)n2)n1 [AG221, 2-methyl-1-[[4-[6-(trifluoromethyl)pyridin-2-yl]-6-[[2-(trifluoromethyl)pyridin-4-yl]amino]-1,3,5-triazin-2-yl]amino]propan-2-ol]",CD62L expression in human CD8+ T-cells,"[1]; day 11, 5 μM, versus DMSO",strong upregulation
same,CD8+ cells expressing CD62L,"[1]; day 11, AG221 5 μM, MK2206 1 μM, DMSO control about 35%",about 75%
same,CD62L-positive population of CD4 T cells,[2],strong increase
same,frequency of transferred T-cells,"[3]; day 14 (day 7 post ACT), cells treated in vitro before ACT, versus DMSO",significantly higher
same,proportion of central memory T cells (TCM) within transferred CD8+ T-cells,[3]; [5],significantly higher
same,proportion of memory precursor effector cells (MPECs) within transferred CD8+ T-cells,[3]; [5],significantly higher
same,proportion of short-lived effector cells (SLECs) within transferred CD8+ T-cells,[3]; [5],significantly lower
same,acetylation of lysine residue 27 of histone H3,[4],increased
same,trimethylation of lysine residue 4 of histone H3,[4],increased
